Values of other authors in paper PMC9992518, “Structural basis of peptide recognition and activation of endothelin receptors” (Nature Communications, 2023).
pKi: −log10 of the molar value.

What was measured:
ETAR [1] = tested on: ETAR
ETBR [2] = tested on: ETBR; set-up: method as in earlier work; conditions: ETBR activated by ET-3
ETAR [3] = target: ETAR; remark: listed apart in the source
Excerpt: (§1) S6c bears an identical substitution from K9 to E9 compared with s6b (Fig. 1a). The charge of the ninth residue has been thought to determine the ETR selectivity of s6c over s6b[33], supporting the importa ...

ETBR [4] = target: ETBR
Excerpt: as §1

LgBiT = conditions: NanoBiT complementary peptide
Excerpt: NanoLuc Binary Technology (NanoBiT, Promega) is originally a structurally complementary reporter system to evaluate protein-protein interaction in cells. NanoBiT is composed of a large subunit (LgBiT, 18 kDa) and an 11 amino acid complementary peptide (SmBiT, peptide, […]) with low affinity for LgBiT, both of which are connected to two interacting target proteins of interest, respectively. When the two proteins interact, the two subunits assemble into an active enzyme and generate a bright luminescent signal in the presence of a substrate. To improve the homogeneity and stability o ...

ET-3: endothelin, 21-amino-acid peptide hormone
fold weaker affinity for ETAR (ETAR [1]; ETAR, relative to ET-1 and ET-2): 100 fold | effect on ET-1-mediated effects upon ETBR activation (in words) (ETBR [2]): can inhibit the ET-1-mediated effects

Sarafotoxin s6c
ETBR selectivity (in words) (ETAR [1]; from reduced affinity for ETAR compared with s6b): substantial ETBR selectivity

Succinyl-[Glu^9, Ala^11,15]-ET-1(8-21) [IRL1620]
pKi (ETAR [3]): 5.72 | pKi (ETBR [4]): 10.80

VSGWRLFKKIS [HiBiT]
affinity for LgBiT (in words) (LgBiT): high affinity

VTGYRLFEEIL [SmBiT]
affinity for LgBiT (in words) (LgBiT): low affinity
